How the values were obtained:
[1] = Volatility of perfuming compounds (Tables 4 to 10), with top/middle/bottom note type; type: physicochemical
Protocol: In some aspects, the first perfume accord comprises perfuming compounds having a volatility ranging from 70,000 to 100 μg/l in air. In some aspects, perfuming compounds having a volatility ranging from 70,000 to 100 μg/l in air are referred to as “top notes”.
In some aspects, the second perfume accord comprises perfuming compounds having a volatility ranging from 99 to 50 μg/l in air. In some aspects, perfuming compounds having a volatility ranging from 99 to 50 μg/l in air are referred to as “middle notes”.
In some aspects, the third perfume accord comprises perfuming compounds having a volatility ranging from 49 to 0.1 μg/l in air. In some aspects, perfuming compounds having a volatility ranging from 49 to 0.1 μg/l in air are referred to as “bottom notes”.
Tables 4 to 10 describe top, middle and bottom note perfuming compounds for watery, green, fruity, citrus, sweet, gourmand and woody notes respectively.

[2] = Odor threshold and odor value of perfuming compounds (Tables 4 to 10)
[3] = Table 6, perfuming compounds having a fruity note
[4] = Table 6, perfuming compounds having a fruity note, note type by volatility
[5] = Table 7, citrus note, top, middle or bottom note
[6] = note type (Top/Middle/Bottom) by volatility, perfuming compounds having a green note
[7] = perfuming compounds having a green note
[8] = Table 8, perfuming compounds having a sweet note
[9] = Table 8, perfuming compounds having a sweet note, note type by volatility

| Compound | Volatility [1, 3] [μg/l air] | Type [1, 4] | further results |
| --- | --- | --- | --- |
| CC1CC(C)(c2ccccc2)OC(C)O1 (stereo not drawn) | 113.83 | TOP (perfuming compounds having a volatility ranging from 70,000 to 100 μg/l in air are referred to as “top notes”) | Odor Threshold [2, 3]: 7.82E−03 μg/l air; Odor Value [2, 3]: 1.46E+04 |
| CC(C)=CCCC(C)=CCO | – | – | Type [1, 5]: Middle |
| C=CC(=C)CCC=C(C)C | 15094.56 | TOP (perfuming compounds having a volatility ranging from 70,000 to 100 μg/l in air are referred to as “top notes”) | – |
| CCOC(=O)C1=C(C)C=CCC1(C)C | 368.81 | TOP (perfuming compounds having a volatility ranging from 70,000 to 100 μg/l in air are referred to as “top notes”) | – |
| C/C=C(\C)C(=O)OCC/C=C\CC | – | – | Type [1, 6]: Top; Volatility (μg/l air) [1, 7]: 168.78 μg/l air |
| CC(C)=CCC/C(C)=C/CO | – | – | Volatility (μg/l air) ([1]; Table 7, citrus note): 89.88 μg/l air; Type [1, 5]: Middle |
| CC(C)=CCC/C(C)=C\CO | – | – | Volatility (μg/l air) ([1]; Table 7, citrus note): 86.02 μg/l air; Type [1, 5]: Middle |
| CCCOC(=O)[C@H](C)OC(C)(C)CC | 995.16 | TOP (perfuming compounds having a volatility ranging from 70,000 to 100 μg/l in air are referred to as “top notes”) | – |
| CC1(C)CCC[C@]2(C)[C@H]3CCO[C@]3(C)CC[C@@H]12 | – | – | Type ([1]; Table 10, perfuming compounds having a woody note, note type by volatility): Bottom |
| CCCCCC1(C)CCC(C)(C)C1=O (racemic) | 265.42 | TOP (perfuming compounds having a volatility ranging from 70,000 to 100 μg/l in air are referred to as “top notes”) | – |
| C=C1CCCC(C)(C)C1C(=O)OC (racemic) | 1089.25 | TOP (perfuming compounds having a volatility ranging from 70,000 to 100 μg/l in air are referred to as “top notes”) | – |
| CC/C=C\C[C@H]1C(=O)CC[C@@H]1CC(=O)OC (racemic) | 1.59 | Bottom | – |
| CC1CCC(=O)O1 (racemic) [(+−)-4-PENTANOLIDE] | 2355.15 | TOP (perfuming compounds having a volatility ranging from 70,000 to 100 μg/l in air are referred to as “top notes”) | Volatility (μg/l air) ([1]; Table 7, citrus note): 2355.15 μg/l air; Type [1, 5]: Top |
| CCCCCCCC1CCC(=O)O1 (racemic) [(+−)-5-heptyldihydro-2(3H)-furanone] | – | – | Odor Threshold [2, 3]: 3.16E−05 μg/l air; Odor Value [2, 3]: 1.16E+05; Odor Threshold [2, 8]: 3.16E−05 μg/l air; Odor Value [2, 8]: 1.16E+05; Odor Threshold ([2]; Table 9, gourmand note): 3.16E−05 μg/l air |
| CC1(C)C2CC[C@@]1(C)C(=O)C2 (single isomer, unassigned; (+)) | 555.04 | TOP (perfuming compounds having a volatility ranging from 70,000 to 100 μg/l in air are referred to as “top notes”) | – |
| CC(=O)OC(C)(C)Cc1ccccc1 [1,1-DIMETHYL-2-PHENYLETHYL ACETATE] | 198.02 | TOP (perfuming compounds having a volatility ranging from 70,000 to 100 μg/l in air are referred to as “top notes”) | – |
| CCCc1ccc(OC)cc1 [1-METHOXY-4-PROPYLBENZENE] | 629.29 | TOP (perfuming compounds having a volatility ranging from 70,000 to 100 μg/l in air are referred to as “top notes”) | – |
| CCCCCC(C)=O [2-HEPTANONE] | 26409.73 | TOP (perfuming compounds having a volatility ranging from 70,000 to 100 μg/l in air are referred to as “top notes”) | – |
| COc1ccc2ccccc2c1 [2-METHOXYNAPHTHALENE] | – | – | Odor Threshold [2, 8]: 1.02E−05 μg/l air; Odor Value [2, 8]: 5.00E+06; Odor Threshold ([2]; Table 9, gourmand note): 1.02E−05 μg/l air |
| CCCCCCC(C)=O [2-OCTANONE] | 6639.71 | TOP (perfuming compounds having a volatility ranging from 70,000 to 100 μg/l in air are referred to as “top notes”) | – |

| Compound | Volatility [1, 3] [μg/l air] | Type [1, 4] | further results |
| --- | --- | --- | --- |
| CC(=O)OCCC(C)CC(C)(C)C (stereo not drawn) [3,5,5-TRIMETHYLHEXYL ACETATE] | 1461.80 | TOP (perfuming compounds having a volatility ranging from 70,000 to 100 μg/l in air are referred to as “top notes”) | – |
| CC(C)(C)Cc1cccnc1 [3-(2,2-DIMETHYLPROPYL)PYRIDINE] | 516.21 | TOP (perfuming compounds having a volatility ranging from 70,000 to 100 μg/l in air are referred to as “top notes”) | – |
| CC(C)CC(=O)O [3-METHYLBUTANOIC ACID] | – | – | Odor Threshold ([2]; Table 10, woody note): 2.23E−04 μg/l air |
| CCCCCC(=O)CC [3-OCTANONE] | 6787.60 | TOP (perfuming compounds having a volatility ranging from 70,000 to 100 μg/l in air are referred to as “top notes”) | – |
| CCOc1cc(C=O)ccc1O [3-ethoxy-4-hydroxybenzaldehyde] | – | – | Volatility [1, 8]: 0.11 μg/l air; Type [1, 9]: Bottom |
| Cc1ccc(OC(=O)C(C)C)cc1 [4-METHYLPHENYL ISOBUTYRATE] | 167.81 | TOP (perfuming compounds having a volatility ranging from 70,000 to 100 μg/l in air are referred to as “top notes”) | – |
| CCC(=O)CC(C)CC (stereo not drawn) [5-METHYL-3-HEPTANONE] | 14141.42 | TOP (perfuming compounds having a volatility ranging from 70,000 to 100 μg/l in air are referred to as “top notes”) | – |
| CCCCCCC1CCCC(=O)O1 (stereo not drawn) [6-hexyltetrahydro-2H-pyran-2-one] | 4.64 | Bottom | Volatility [1, 8]: 4.64 μg/l air; Type [1, 9]: Bottom; Volatility ([1]; Table 9, gourmand note): 4.64 μg/l air; Type ([1]; Table 9, perfuming compounds having a gourmand note, note type by volatility): Bottom |
| CC/C=C\CCCCCO [(Z)-6-NONEN-1-OL] | – | – | Volatility (μg/l air) ([1]; Table 4, watery note): 6.91 μg/l air; Type ([1]; Table 4, watery note, top, middle or bottom note): bottom (perfuming compounds having a volatility ranging from 49 to 0.1 μg/l in air are referred to as “bottom notes”); Type [1, 6]: Bottom; Volatility (μg/l air) [1, 7]: 6.91 μg/l air |
| C=CCOC(=O)CCCCC [ALLYL HEXANOATE] | 941.49 | TOP (perfuming compounds having a volatility ranging from 70,000 to 100 μg/l in air are referred to as “top notes”) | – |
| O=Cc1ccccc1 [BENZALDEHYDE] | – | – | Volatility [1, 8]: 8207.00 μg/l air; Type [1, 9]: Top; Type [1, 6]: Top; Volatility (μg/l air) [1, 7]: 8207.00 μg/l air |
| CCOC(=O)c1ccccc1 [ETHYL BENZOATE] | 1285.12 | TOP (perfuming compounds having a volatility ranging from 70,000 to 100 μg/l in air are referred to as “top notes”) | – |
| CCOC(=O)C(C)C [ETHYL ISOBUTYRATE] | 132964.09 | TOP (perfuming compounds having a volatility ranging from 70,000 to 100 μg/l in air are referred to as “top notes”) | – |
| CCOC(=O)Cc1ccccc1 [ETHYL PHENYLACETATE] | 269.77 | TOP (perfuming compounds having a volatility ranging from 70,000 to 100 μg/l in air are referred to as “top notes”) | – |
| CC(=O)OCc1ccccc1 [benzyl acetate] | 507.38 | TOP (perfuming compounds having a volatility ranging from 70,000 to 100 μg/l in air are referred to as “top notes”) | – |
| CCOC(=O)/C(C)=C/C(C)C [ethyl (2E)-2,4-dimethyl-2-pentenoate] | 1618.37 | TOP (perfuming compounds having a volatility ranging from 70,000 to 100 μg/l in air are referred to as “top notes”) | – |
| CCCCCCC(=O)OCC [ethyl heptanoate] | 3052.89 | TOP (perfuming compounds having a volatility ranging from 70,000 to 100 μg/l in air are referred to as “top notes”) | – |
| COC(=O)C=C1CCCC1 [methyl cyclopentylideneacetate] | 1091.46 | TOP (perfuming compounds having a volatility ranging from 70,000 to 100 μg/l in air are referred to as “top notes”) | – |
| (+−)-(3E)-3-methyl-4-(2,6,6-trimethyl-2-cyclohexen-1-yl)-3-buten-2-one (A) + (+−)-(1E)-1-(2,6,6-trimethyl-2-cyclohexen-1-yl)-1-penten-3-one (B) | – | – | Type [1, 5]: Bottom |
